According to BindingDB's records for PubMed 1650832 (Pfizer, 1991):

Biological target: T1, Cysteinyl leukotriene receptor 2 (Cavia porcellus, UniProt Q2NNR4)
T1 sequence (Q2NNR4 whole entry): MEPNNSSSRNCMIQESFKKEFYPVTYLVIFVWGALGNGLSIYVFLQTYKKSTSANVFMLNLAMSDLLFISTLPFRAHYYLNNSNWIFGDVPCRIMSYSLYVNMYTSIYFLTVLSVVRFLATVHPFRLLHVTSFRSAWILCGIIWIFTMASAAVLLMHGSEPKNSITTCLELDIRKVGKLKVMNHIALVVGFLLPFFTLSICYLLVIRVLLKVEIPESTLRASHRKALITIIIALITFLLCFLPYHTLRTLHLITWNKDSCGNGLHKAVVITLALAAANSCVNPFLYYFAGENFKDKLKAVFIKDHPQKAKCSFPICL

| Structure (SMILES) | Ki [nM] |
| --- | --- |
| COc1cc(C(=O)NS(=O)(=O)c2ccccc2)ccc1Cn1ncc2ccc(NC(=O)OC3CCCC3)cc21 | 6.89 |
| CCCCC/C=C\C\C=C/C=C/C=C/[C@@H](SC[C@H](N)C(=O)NCC(=O)O)[C@@H](O)CCCC(=O)O [5S-hydroxy-6R-(S-cysteinylglycinyl)-7E,9E,11E,14Z-eicosatetraenoic acid] | 0.49 |
| CCCCC/C=C\C\C=C/C=C/C=C/[C@@H](SC[C@H](N)C(=O)O)[C@@H](O)CCCC(=O)O [(5S-(5R*,6S*(S*),7E,9E,11Z,14Z))-6-((2-Amino-2-carboxyethyl)thio)-5-hydroxy-7,9,11,14-eicosatetraenoic acid] | 35.5 |
| CCCCCC=CCC=CC=CC=CC(SCC(NC(=O)CCC(N)C(=O)O)C(=O)NCC(=O)O)C(O)CCCC(=O)O (centres undefined) [CAS_5283121] | 178 |
